Experimental data from US20260250290A1 (BRISTOL-MYERS SQUIBB COMPANY, priority 2023, published 2026).
Structures can show the parent of a compound that is named as a salt.

Each compound was assayed against T1, full length SGK1 (Homo sapiens, UniProt O00141) (assay: SGK1 inhibition Assay A (Caliper LabChip electrophoretic separation of fluorescent peptide substrate and phosphorylated product)). Details: Assay A; 20 μM ATP, 40 min incubation; read-out: SGK1 IC50.
T1 construct: 125 μM full length SGK1 (Life Technologies Part #PR7358A); purchased Life Technologies PR7358A
T1 sequence (O00141 1-431): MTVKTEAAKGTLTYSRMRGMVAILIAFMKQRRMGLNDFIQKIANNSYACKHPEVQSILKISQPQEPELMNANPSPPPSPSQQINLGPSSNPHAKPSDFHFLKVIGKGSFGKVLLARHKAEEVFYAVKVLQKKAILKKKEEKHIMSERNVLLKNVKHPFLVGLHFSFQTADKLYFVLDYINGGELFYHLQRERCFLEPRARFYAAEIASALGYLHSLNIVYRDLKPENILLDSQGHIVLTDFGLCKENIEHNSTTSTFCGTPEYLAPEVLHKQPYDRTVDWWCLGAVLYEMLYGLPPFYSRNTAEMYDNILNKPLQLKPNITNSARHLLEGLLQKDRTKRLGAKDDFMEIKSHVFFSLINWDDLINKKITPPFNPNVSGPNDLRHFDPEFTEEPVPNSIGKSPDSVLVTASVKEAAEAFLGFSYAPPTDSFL
Format: biochemical

| Structure (SMILES) | IC50 [nM] |
| --- | --- |
| CC1(NC(=O)c2ccc(Cl)s2)CCCN(c2cc(-c3ccc(S(C)(=O)=O)cc3)n3ncnc(N)c23)C1 (centres unmarked) [Example 145, N-(1-(4-amino-7-(4-(methylsulfonyl)phenyl)pyrrolo[2,1-f][1,2,4]triazin-5-yl)-3-methylpiperidin-3-yl)-5-chlorothiophene-2-carboxamide, TFA] | 765 |
| C[C@@]1(NC(=O)c2ccc(Cl)s2)CCCN(c2cc(-c3ccc(S(C)(=O)=O)cc3)n3ncnc(N)c23)C1 [Example 146, (R)—N-(1-(4-amino-7-(4-(methylsulfonyl)phenyl)pyrrolo[2,1-f][1,2,4]triazin-5-yl)-3-methylpiperidin-3-yl)-5-chlorothiophene-2-carboxamide, TFA] | 835 |
| COCCOc1cc(Cl)sc1C(=O)N[C@@H]1CCCN(c2cc(-c3ccnc(F)c3)n3ncnc(N)c23)C1 [Example 147, (R)-N-(1-(4-amino-7-(2-fluoropyridin-4-yl)pyrrolo[2,1-f][1,2,4]triazin-5-yl)piperidin-3-yl)-5-chloro-3-(2-methoxyethoxy)thiophene-2-carboxamide] | 4 |
| Nc1ncnn2c(-c3ccnc(F)c3)cc(N3CCC[C@@H](NC(=O)c4sc(Cl)cc4OCCN4CCOCC4)C3)c12 [Example 148, (R)-N-(1-(4-amino-7-(2-fluoropyridin-4-yl)pyrrolo[2,1-f][1,2,4]triazin-5-yl)piperidin-3-yl)-5-chloro-3-(2-morpholinoethoxy) thiophene-2-carboxamide, TFA] | 5 |
| CN(C)CCOc1cc(Cl)sc1C(=O)N[C@@H]1CCCN(c2cc(-c3ccnc(F)c3)n3ncnc(N)c23)C1 [Example 149, (R)-N-(1-(4-amino-7-(2-fluoropyridin-4-yl)pyrrolo[2,1-f][1,2,4]triazin-5-yl)piperidin-3-yl)-5-chloro-3-(2-(dimethylamino)ethoxy) thiophene-2-carboxamide, TFA] | 1 |
| Nc1ncnn2c(-c3ccnc(F)c3)cc(N3CCC[C@@H](NC(=O)c4cc(Cl)c(Cl)s4)C3)c12 [Example 150, (R)-N-(1-(4-amino-7-(2-fluoropyridin-4-yl)pyrrolo[2,1-f][1,2,4]triazin-5-yl)piperidin-3-yl)-4,5-dichlorothiophene-2-carboxamide] | 5 |
| Nc1ncnn2c(-c3ccnc(F)c3)cc(N3CCC[C@@H](NC(=O)Cc4ccc(Cl)s4)C3)c12 [Example 151, (R)-N-(1-(4-amino-7-(2-fluoropyridin-4-yl)pyrrolo[2,1-f][1,2,4]triazin-5-yl)piperidin-3-yl)-2-(5-chlorothiophen-2-yl)acetamide] | 285 |
| Nc1ncnn2c(-c3ccnc(F)c3)cc(N3CCC[C@@H](NC(=O)c4ccc(C(F)F)s4)C3)c12 [Example 152, (R)-N-(1-(4-amino-7-(2-fluoropyridin-4-yl)pyrrolo[2,1-f][1,2,4]triazin-5-yl)piperidin-3-yl)-5-(difluoromethyl)thiophene-2-carboxamide, TFA] | 5 |
| Nc1ncnn2c(-c3ccnc(F)c3)cc(N3CCC[C@@H](NC(=O)c4cccs4)C3)c12 [Example 153, (R)-N-(1-(4-amino-7-(2-fluoropyridin-4-yl)pyrrolo[2,1-f][1,2,4]triazin-5-yl)piperidin-3-yl)thiophene-2-carboxamide] | 1 |
| Nc1ncnn2c(-c3ccnc(F)c3)cc(N3CCC[C@@H](NC(=O)c4ccc(C(F)(F)F)s4)C3)c12 [Example 154, (R)-N-(1-(4-amino-7-(2-fluoropyridin-4-yl)pyrrolo[2,1-f][1,2,4]triazin-5-yl)piperidin-3-yl)-5-(trifluoromethyl)thiophene-2-carboxamide, TFA] | 7 |
| Nc1ncnn2c(-c3ccnc(F)c3)cc(N3CCC[C@@H](NC(=O)c4ccsc4)C3)c12 [Example 155, (R)-N-(1-(4-amino-7-(2-fluoropyridin-4-yl)pyrrolo[2,1-f][1,2,4]triazin-5-yl)piperidin-3-yl)thiophone-3-carboxamide] | 2 |
| COc1cscc1C(=O)N[C@@H]1CCCN(c2cc(-c3ccnc(F)c3)n3ncnc(N)c23)C1 [Example 156, (R)-N-(1-(4-amino-7-(2-fluoropyridin-4-yl)pyrrolo[2,1-f][1,2,4]triazin-5-yl)piperidin-3-yl)-4-methoxythiophene-3-carboxamide] | 3 |
| Nc1ncnn2c(-c3ccnc(F)c3)cc(N3CCC[C@@H](NC(=O)c4cc(Cl)sc4Cl)C3)c12 [Example 157, (R)-N-(1-(4-amino-7-(2-fluoropyridin-4-yl)pyrrolo[2,1-f][1,2,4]triazin-5-yl)piperidin-3-yl)-2,5-dichlorothiophene-3-carboxamide] | 15 |
| COc1c(C(=O)N[C@@H]2CCCN(c3cc(-c4ccnc(F)c4)n4ncnc(N)c34)C2)csc1Cl [Example 158, (R)-N-(1-(4-amino-7-(2-fluoropyridin-4-yl)pyrrolo[2,1-f][1,2,4]triazin-5-yl)piperidin-3-yl)-5-chloro-4-methoxythiophene-3-carboxamide] | 6 |
| Nc1ncnn2c(-c3ccnc(F)c3)cc(N3CCC[C@@H](NC(=O)c4csc5ccccc45)C3)c12 [Example 159, (R)-N-(1-(4-amino-7-(2-fluoropyridin-4-yl)pyrrolo[2,1-f][1,2,4]triazin-5-yl)piperidin-3-yl)benzo[b]thiophene-3-carboxamide, TFA] | 17 |
| Nc1ncnn2c(-c3ccnc(F)c3)cc(N3CCC[C@@H](NC(=O)c4csc5c4CCCC5)C3)c12 [Example 160, (R)-N-(1-(4-amino-7-(2-fluoropyridin-4-yl)pyrrolo[2,1-f][1,2,4]triazin-5-yl)piperidin-3-yl)-4,5,6,7-tetrahydrobenzo[b] thiophene-3-carboxamide, TFA] | 20 |
| Nc1ncnn2c(-c3ccnc(F)c3)cc(N3CCC[C@@H](NC(=O)c4csc(Cl)c4)C3)c12 [Example 161, (R)-N-(1-(4-amino-7-(2-fluoropyridin-4-yl)pyrrolo[2,1-f][1,2,4]triazin-5-yl)piperidin-3-yl)-5-chlorothiophone-3-carboxamide] | 2 |
| COCCOc1cc(Cl)sc1C(=O)N[C@@H]1CCCN(c2cc(-c3ccc(C(N)=O)c(F)c3)n3ncnc(N)c23)C1 [Example 162, (R)-N-(1-(4-amino-7-(4-carbamoyl-3-fluorophenyl)pyrrolo [2,1-f][1,2,4]triazin-5-yl)piperidin-3-yl)-5-chloro-3-(2-methoxyethoxy) thiophene-2-carboxamide] | 5 |
| NC(=O)c1ccc(-c2cc(N3CCC[C@@H](NC(=O)c4sc(Cl)cc4OCCN4CCOCC4)C3)c3c(N)ncnn23)cc1F [Example 163, (R)-N-(1-(4-amino-7-(4-carbamoyl-3-fluorophenyl)pyrrolo [2,1-f][1,2,4]triazin-5-yl)piperidin-3-yl)-5-chloro-3-(2-morpholinoethoxy) thiophene-2-carboxamide, TFA] | 6 |
| CN(C)CCOc1cc(Cl)sc1C(=O)N[C@@H]1CCCN(c2cc(-c3ccc(C(N)=O)c(F)c3)n3ncnc(N)c23)C1 [Example 164, (R)-N-(1-(4-amino-7-(4-carbamoyl-3-fluorophenyl)pyrrolo [2,1-f][1,2,4]triazin-5-yl)piperidin-3-yl)-5-chloro-3-(2-(dimethylamino)ethoxy)thiophene-2-carboxamide, 2 TFA] | 2 |
| CC(C)(O)CCOc1cc(Cl)sc1C(=O)N[C@@H]1CCCN(c2cc(-c3ccnc(F)c3)n3ncnc(N)c23)C1 [Example 166, (R)—N-(1-(4-amino-7-(2-fluoropyridin-4-yl)pyrrolo[2,1-f][1,2,4]triazin-5-yl)piperidin-3-yl)-5-chloro-3-(3-hydroxy-3-methylbutoxy)thiophene-2-carboxamide] | 3 |
| CN1CCN(CCOc2cc(Cl)sc2C(=O)N[C@@H]2CCCN(c3cc(-c4ccnc(F)c4)n4ncnc(N)c34)C2)CC1 [Example 167, (R)—N-(1-(4-amino-7-(2-fluoropyridin-4-yl)pyrrolo[2,1-f][1,2,4]triazin-5-yl)piperidin-3-yl)-5-chloro-3-(2-(4-methylpiperazin-1-yl)ethoxy)thiophene-2-carboxamide, 2 TFA] | 1 |
| C=Cc1cc(C)sc1C(=O)N[C@@H]1CCCN(c2cc(-c3ccnc(F)c3)n3ncnc(N)c23)C1 [Example 169, (R)—N-(1-(4-amino-7-(2-fluoropyridin-4-yl)pyrrolo[2,1-f][1,2,4]triazin-5-yl)piperidin-3-yl)-5-methyl-3-vinylthiophene-2-carboxamide] | 12 |
| Cc1cc(Br)c(C(=O)N[C@@H]2CCCN(c3cc(-c4ccnc(F)c4)n4ncnc(N)c34)C2)s1 [Example 170, (R)—N-(1-(4-amino-7-(2-fluoropyridin-4-yl)pyrrolo[2,1-f][1,2,4]triazin-5-yl)piperidin-3-yl)-3-bromo-5-methylthiophene-2-carboxamide] | 6 |
| CN(C)CCOc1cc(Cl)sc1C(=O)N[C@@H]1CCCN(c2cc(C3=CCNC3)n3ncnc(N)c23)C1 [Example 171, (R)—N-(1-(4-amino-7-(2,5-dihydro-1H-pyrrol-3-yl)pyrrolo[2,1-f][1,2,4]triazin-5-yl)piperidin-3-yl)-5-chloro-3-(2-(dimethylamino)ethoxy)thiophene-2-carboxamide, 3 TFA] | 16 |
| CN(C)CCOc1cc(Cl)sc1C(=O)N[C@@H]1CCCN(c2cc(C3=CCNCC3)n3ncnc(N)c23)C1 [Example 172, (R)—N-(1-(4-amino-7-(1,2,3,6-tetrahydropyridin-4-yl)pyrrolo[2,1-f][1,2,4]triazin-5-yl)piperidin-3-yl)-5-chloro-3-(2-(dimethylamino)ethoxy)thiophene-2-carboxamide, 3 TFA] | 350 |
